Test results taken from patent publication US20230236170A1, “REACTIVE AFFINITY PROBE-I[…] PLATFORM” (Jnana Therapeutics Inc., priority 2019, published 2023).

Experiments:
[1] = target: T1, creatine transporter SLC6A8 (Homo sapiens, UniProt P48029); assay: creatine uptake assay after photo-crosslinking of reactive affinity probe; type: cell-based; conditions: 100 μM JN-1724 with or without 1 mM β-GPA, 30 minutes, 6 minutes 365 nm; FIG. 3
T1 construct: host or cells: 'Cells', not specified
T1 sequence (P48029 1-635): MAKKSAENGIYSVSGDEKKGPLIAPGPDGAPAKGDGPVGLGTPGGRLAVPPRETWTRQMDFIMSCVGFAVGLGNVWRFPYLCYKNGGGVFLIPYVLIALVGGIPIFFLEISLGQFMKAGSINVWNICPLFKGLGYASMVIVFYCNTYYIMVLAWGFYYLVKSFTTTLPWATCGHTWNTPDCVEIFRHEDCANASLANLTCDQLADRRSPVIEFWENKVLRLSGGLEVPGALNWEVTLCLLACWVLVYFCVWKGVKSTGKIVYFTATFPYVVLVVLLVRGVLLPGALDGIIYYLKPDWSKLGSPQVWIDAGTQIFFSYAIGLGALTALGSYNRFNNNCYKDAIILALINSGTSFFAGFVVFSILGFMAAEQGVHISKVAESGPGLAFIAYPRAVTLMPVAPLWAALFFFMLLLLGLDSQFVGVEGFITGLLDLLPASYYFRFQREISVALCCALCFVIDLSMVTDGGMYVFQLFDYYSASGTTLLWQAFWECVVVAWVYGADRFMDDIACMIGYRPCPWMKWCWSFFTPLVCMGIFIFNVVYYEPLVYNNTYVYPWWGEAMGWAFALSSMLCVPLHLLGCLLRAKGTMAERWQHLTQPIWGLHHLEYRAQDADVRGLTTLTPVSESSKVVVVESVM
Description: Cells were dosed for 30 minutes with 100 μM JN-1724 with or without 1 mM β-GPA and then irradiated for 6 minutes with 365 nm light. Cells were washed and the residual transport activity of SLC6A8 was measured via a creatine uptake assay.
RAPID identifies orthosteric and allosteric ligands as starting points or probes for target occupancy. The extent of covalent modification of the creatine transporter by a subset of the RAP library is highly reproducible (FIG. 2A). Screen of 2000 RAPs against the creatine transporter SLC6A8±the substrate analog guanidinoproprionic acid (GPA) identifies substrate-sensitive binder (FIG. 2B). Dots that fall off-diagonal are either substrate-competitive or substrate-cooperative. Two RAPs identified from the screen show dose-dependent inhibition or enhancement of covalent modification of the target as a function of the concentration of GPA (FIG. 2C).
A 30 minute 100 μM dose of JN-1724 followed by 6 minutes of cross-linking at 365 nm is enough to inhibit SLC6A8 transport of creatine to 5.7% of normal transport. […] Cells were lysed; biotin was clicked on; and biotinylated proteins were affinity-purified with streptavidin, digested with trypsin, and identified by tandem mass spectrometry with TMT quantification. […]

[2] = target: T2, SLC6A8 (Homo sapiens, UniProt P48029); assay: target engagement by mass spectrometry of the adductome (streptavidin enrichment, TMT quantification); type: binding; conditions: co-dosing 1 mM β-GPA with 20 μM JN-1724, 30 minutes, 6 minutes 365 nm
T2 construct: host or cells: 'Cells', not specified
T2 sequence (P48029 1-635): T1 sequence (P48029 1-635)
Description: Cells were dosed for 30 minutes with 20 μM JN-1724 with or without 1 mM β-GPA and then irradiated for 6 minutes with 365 nm light. Cells were lysed; biotin was clicked on; and biotinylated proteins were affinity-purified with streptavidin, digested with trypsin, and identified by tandem mass spectrometry with TMT quantification. SLC6A8 (dot pointed at with arrow) was one of the proteins identified and co-dosing with 1 mM β-GPA reduced the level of enrichment by 80%.
A 30 minute 100 μM dose of JN-1724 followed by 6 minutes of cross-linking at 365 nm is enough to inhibit SLC6A8 transport of creatine to 5.7% of normal transport. To confirm target engagement by unbiased mass spectrometry of the adductome, Cells were dosed for 30 minutes with 20 μM JN-1724 with or without 1 mM β-GPA and then irradiated for 6 minutes with 365 nm light. Cells were lysed; biotin was clicked on; and biotinylated proteins were affinity-purified with streptavidin, digested with trypsin, and identified by tandem mass spectrometry with TMT quantification. SLC6A8 (dot pointed at with arrow) was one of the proteins identified and co-dosing with 1 mM β-GPA reduced the level of enrichment by 80% (FIG. 4).

effect on residual transport activity of SLC6A8 [1]: protection
reduction of the level of enrichment of SLC6A8 [2]: 80%
SMILES: N=C(N)NCCC(=O)O [β-GPA, β-guanidinoproprionic acid]
